Test results taken from ChEMBL document CHEMBL1201862, “PubChem BioAssay data set” (2004).
The source made the active and inactive calls. Where a SMILES comes first, the peptide text is derived from it. The star is where a group is joined. CH2Cl = ClC*

Tests used:
[1] = molecular target: T1, Low molecular weight phosphotyrosine protein phosphatase (Homo sapiens, UniProt P24666); format: functional; settings: read-out: IC50_Mean;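 further: Dose-response confirmation assay measuring inhibition of LMPTP enzyme activity by fluorescence intensity read-out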
T1 sequence (P24666 whole entry): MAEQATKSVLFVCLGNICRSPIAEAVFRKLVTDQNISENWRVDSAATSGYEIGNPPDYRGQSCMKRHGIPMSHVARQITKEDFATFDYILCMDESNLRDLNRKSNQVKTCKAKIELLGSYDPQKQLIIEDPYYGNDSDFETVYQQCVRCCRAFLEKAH

[2] = molecular target: T2, Small ubiquitin-related modifier 1 (Homo sapiens, UniProt P63165); experiment: inhibitors of SUMO1 peptide binding, dose response, biochemical, fluorescence polarization, uHTS hits (AID 624382); format: functional; settings: read-out: IC50_Mean
T2 sequence (P63165 whole entry): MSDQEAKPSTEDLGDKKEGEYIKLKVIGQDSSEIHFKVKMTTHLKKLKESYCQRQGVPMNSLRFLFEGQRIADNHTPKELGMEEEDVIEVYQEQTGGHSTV

[3] = molecular target: T2, Small ubiquitin-related modifier 1; experiment: inhibitors of SUMO1 partner interactions, dose response, biochemical, FRET (AID 624383); format: functional; settings: read-out: IC50_Mean
[4] = molecular target: T3, Interleukin-8 (Homo sapiens, UniProt P10145); experiment: Dose Response confirmation of uHTS small molecule hits for cystic fibrosis induced NFkb Inhibitors in a TNFa-induced IL8 counterscreen.; format: functional; settings: read-out: IC50_Mean
T3 sequence (P10145 whole entry): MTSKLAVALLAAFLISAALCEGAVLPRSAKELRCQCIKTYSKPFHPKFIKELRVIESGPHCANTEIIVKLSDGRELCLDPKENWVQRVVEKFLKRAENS

[5] = molecular target: T3, Interleukin-8; experiment: Dose Response confirmation of uHTS small molecule hits for cystic fibrosis induced NFkb Inhibitors in a PAF-induced IL8 counterscreen.; format: functional; settings: read-out: IC50_Mean
[6] = ARNT/TACC3 interaction disruptors, potency, confirmation, biochemical, AlphaScreen, cherry-picked samples (AID 651703); format: functional, Homo sapiens;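 further: His-tagged ARNT PAS-B domain paired with GST-TACC3 E629A dimer coactivator fragment; potency of inhibitors that break up the complex and lower AlphaScreen signal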
[7] = miR-122 activators in hepatoma reporter cells, dose response, cell-based, Huh7 psiCHECK-miR122, Renilla luciferase, cherry-picked (AID 651956); format: functional;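 further: huh7 hepatoma cells stably carrying a psiCHECK-2 miR-122 sensor plasmid; renilla luciferase signal reporting endogenous miR-122 activity after 48 h compound exposure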
[8] = Counterscreen for activators of the function of SWI/SNF related, matrix associated, actin dependent regulator of chromatin, subfamily a, member 2 (SMARCA2, BRM): Luminescence-based cell-based high throughput dose response assay to identify non-selective compounds using the VP16 reporter assay.; format: functional
[9] = molecular target: SWI/SNF-related matrix-associated actin-dependent regulator of chromatin subfamily A member 2 (Homo sapiens, UniProt P51531); experiment: Luminescence-based cell-based high throughput dose response assay to identify activators of the function of SWI/SNF related, matrix associated, actin dependent regulator of chromatin, subfamily a, member 2 (SMARCA2, BRM).; format: functional
Sequence of SWI/SNF-related matrix-associated actin-dependent regulator of chromatin subfamily A member 2 (P51531 whole entry): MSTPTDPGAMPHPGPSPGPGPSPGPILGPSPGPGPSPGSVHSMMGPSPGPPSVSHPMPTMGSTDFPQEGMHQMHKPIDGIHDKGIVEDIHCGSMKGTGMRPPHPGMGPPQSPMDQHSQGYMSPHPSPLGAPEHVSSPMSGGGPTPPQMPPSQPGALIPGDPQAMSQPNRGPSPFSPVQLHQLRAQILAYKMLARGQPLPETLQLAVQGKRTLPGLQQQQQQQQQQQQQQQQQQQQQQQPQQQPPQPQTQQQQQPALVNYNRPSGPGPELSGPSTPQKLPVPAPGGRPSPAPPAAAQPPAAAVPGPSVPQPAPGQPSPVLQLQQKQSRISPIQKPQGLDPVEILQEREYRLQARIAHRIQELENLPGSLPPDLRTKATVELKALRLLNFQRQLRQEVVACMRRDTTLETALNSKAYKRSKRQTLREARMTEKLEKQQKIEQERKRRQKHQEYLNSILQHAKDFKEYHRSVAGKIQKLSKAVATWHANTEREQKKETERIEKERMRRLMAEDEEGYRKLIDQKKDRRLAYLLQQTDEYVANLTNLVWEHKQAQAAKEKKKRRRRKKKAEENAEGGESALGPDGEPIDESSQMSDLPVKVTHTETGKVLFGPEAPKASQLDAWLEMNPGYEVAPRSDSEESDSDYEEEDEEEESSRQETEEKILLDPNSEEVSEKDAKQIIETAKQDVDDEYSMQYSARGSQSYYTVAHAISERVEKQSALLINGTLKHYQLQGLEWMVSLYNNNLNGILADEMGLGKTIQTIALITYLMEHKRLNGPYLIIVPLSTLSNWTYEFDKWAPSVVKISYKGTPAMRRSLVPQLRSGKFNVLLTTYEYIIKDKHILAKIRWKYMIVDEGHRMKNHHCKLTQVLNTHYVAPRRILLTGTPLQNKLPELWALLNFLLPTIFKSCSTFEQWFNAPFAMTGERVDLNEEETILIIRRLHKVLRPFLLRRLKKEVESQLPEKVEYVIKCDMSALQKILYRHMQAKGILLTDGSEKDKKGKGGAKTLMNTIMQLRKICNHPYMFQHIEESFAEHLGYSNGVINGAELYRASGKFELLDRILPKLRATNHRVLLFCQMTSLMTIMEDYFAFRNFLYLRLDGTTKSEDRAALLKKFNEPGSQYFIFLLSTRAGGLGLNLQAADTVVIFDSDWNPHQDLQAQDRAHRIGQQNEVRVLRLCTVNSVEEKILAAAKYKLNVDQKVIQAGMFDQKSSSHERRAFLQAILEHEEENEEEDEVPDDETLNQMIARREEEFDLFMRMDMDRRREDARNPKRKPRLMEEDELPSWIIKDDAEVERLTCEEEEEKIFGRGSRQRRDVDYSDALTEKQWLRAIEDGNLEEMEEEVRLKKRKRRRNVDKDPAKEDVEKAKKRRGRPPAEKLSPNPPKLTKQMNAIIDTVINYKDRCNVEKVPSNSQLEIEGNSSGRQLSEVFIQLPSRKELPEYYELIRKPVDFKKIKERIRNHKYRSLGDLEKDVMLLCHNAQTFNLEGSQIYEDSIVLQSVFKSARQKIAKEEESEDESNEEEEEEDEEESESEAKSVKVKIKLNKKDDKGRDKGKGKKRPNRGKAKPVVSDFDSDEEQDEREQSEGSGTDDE

[10] = molecular target: T4, Methionyl-tRNA synthetase, putative (Trypanosoma brucei brucei, UniProt Q38C91); format: functional, Trypanosoma brucei brucei strain 927/4 GUTat10.1
T4 sequence (Q38C91 whole entry): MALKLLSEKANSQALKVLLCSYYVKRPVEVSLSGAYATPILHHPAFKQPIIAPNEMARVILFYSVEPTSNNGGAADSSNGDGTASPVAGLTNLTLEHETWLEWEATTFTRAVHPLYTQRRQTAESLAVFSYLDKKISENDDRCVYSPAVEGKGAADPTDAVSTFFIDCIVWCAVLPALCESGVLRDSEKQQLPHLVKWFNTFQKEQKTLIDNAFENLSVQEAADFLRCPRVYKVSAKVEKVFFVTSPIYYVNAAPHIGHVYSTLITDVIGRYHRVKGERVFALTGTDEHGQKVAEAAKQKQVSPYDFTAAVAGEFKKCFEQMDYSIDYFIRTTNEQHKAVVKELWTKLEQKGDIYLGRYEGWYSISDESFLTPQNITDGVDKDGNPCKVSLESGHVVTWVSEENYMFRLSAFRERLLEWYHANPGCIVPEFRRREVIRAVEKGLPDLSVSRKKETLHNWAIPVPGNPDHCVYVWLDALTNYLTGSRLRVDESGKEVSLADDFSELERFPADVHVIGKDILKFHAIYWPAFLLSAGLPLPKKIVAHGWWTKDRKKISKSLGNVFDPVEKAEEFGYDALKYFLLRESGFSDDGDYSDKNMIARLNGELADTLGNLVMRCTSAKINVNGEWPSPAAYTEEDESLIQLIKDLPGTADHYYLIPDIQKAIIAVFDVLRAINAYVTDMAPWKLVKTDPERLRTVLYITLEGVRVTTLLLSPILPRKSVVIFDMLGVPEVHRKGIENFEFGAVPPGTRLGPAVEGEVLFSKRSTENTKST

[11] = molecular target: T4, Methionyl-tRNA synthetase, putative; format: functional, Trypanosoma brucei brucei strain 927/4 GUTat10.1; remark: listed apart in the source
[12] = Counterscreen for inhibitors of Trypanosoma brucei methionyl tRNA synthetase (MetRS): Luminescence-based cell-based high throughput dose response assay to identify compounds that are cytotoxic to Jurkat human T lymphocyte cells.; format: functional
[13] = molecular target: T5, Carboxy-terminal domain RNA polymerase II polypeptide A small phosphatase 1 (Homo sapiens, UniProt Q9GZU7); experiment: inhibitors of CTDSP1, concentration-response testing, biochemical assay, absorbance-based, actives from ultra-high-throughput screening (AID 540297); format: functional
T5 sequence (Q9GZU7 whole entry): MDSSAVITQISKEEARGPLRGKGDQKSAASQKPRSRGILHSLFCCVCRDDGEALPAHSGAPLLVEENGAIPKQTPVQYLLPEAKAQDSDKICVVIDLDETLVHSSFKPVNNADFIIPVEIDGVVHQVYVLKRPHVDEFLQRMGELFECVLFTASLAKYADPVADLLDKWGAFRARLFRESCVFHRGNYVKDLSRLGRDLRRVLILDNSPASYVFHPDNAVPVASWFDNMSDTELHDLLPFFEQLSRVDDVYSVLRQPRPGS

[14] = molecular target: T6, Probable nicotinate-nucleotide adenylyltransferase (Staphylococcus aureus (strain N315), UniProt P65502); format: functional, Staphylococcus aureus subsp. aureus N315;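 on IC50 Mean: confirmatory dose-response retesting of NadD inhibitor hits first found in an ultra-high-throughput screen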
T6 sequence (P65502 whole entry): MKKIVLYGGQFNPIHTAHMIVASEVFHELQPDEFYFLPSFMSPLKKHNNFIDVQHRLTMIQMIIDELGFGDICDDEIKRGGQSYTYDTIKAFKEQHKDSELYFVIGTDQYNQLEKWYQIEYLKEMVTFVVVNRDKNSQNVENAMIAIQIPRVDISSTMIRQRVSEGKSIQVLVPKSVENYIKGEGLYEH

[15] = molecular target: T6, Probable nicotinate-nucleotide adenylyltransferase; format: functional, Staphylococcus aureus subsp. aureus N315; settings: read-out: IC50_Mean
[16] = CRF-BP/CRF-R2 complex antagonists, dose response, cell-based, uHTS hits, 384-well (AID 651639); format: functional, Homo sapiens; settings: read-out: IC50_Mean
[17] = molecular target: T7, Corticotropin-releasing factor receptor 2/Corticotropin-releasing factor-binding protein (Homo sapiens, UniProt P24387+Q13324); experiment: activators of CRF receptor 2 with binding protein – uHTS hits, confirmation (AID 602473); format: functional; settings: read-out: EC50_Mean
T7 sequence (Q13324 whole entry): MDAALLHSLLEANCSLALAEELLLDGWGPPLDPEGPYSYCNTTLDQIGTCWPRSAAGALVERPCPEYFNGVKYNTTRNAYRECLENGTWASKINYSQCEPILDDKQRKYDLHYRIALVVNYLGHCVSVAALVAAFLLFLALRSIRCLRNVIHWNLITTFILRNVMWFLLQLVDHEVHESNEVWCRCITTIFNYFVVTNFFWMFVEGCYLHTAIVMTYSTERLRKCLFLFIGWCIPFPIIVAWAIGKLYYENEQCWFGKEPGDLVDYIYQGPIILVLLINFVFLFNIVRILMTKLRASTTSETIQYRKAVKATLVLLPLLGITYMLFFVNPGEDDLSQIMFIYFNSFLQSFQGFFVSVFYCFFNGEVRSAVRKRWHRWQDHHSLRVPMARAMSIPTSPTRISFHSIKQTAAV
T7 sequence (P24387 whole entry): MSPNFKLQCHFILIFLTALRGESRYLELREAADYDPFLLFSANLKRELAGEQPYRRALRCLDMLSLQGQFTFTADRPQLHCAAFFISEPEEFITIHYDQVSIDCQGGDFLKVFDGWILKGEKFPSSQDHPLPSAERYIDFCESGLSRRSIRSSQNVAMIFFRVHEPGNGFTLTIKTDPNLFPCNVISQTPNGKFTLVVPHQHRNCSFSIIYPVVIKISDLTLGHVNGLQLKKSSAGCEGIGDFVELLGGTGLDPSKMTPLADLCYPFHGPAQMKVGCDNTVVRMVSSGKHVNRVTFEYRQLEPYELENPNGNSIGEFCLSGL

[18] = molecular target: T7, Corticotropin-releasing factor receptor 2/Corticotropin-releasing factor-binding protein; experiment: Dose Response confirmation of uHTS hits for small molecule antagonists of the CRF-binding protein and CRF-R2 receptor complex.; format: functional; settings: read-out: IC50_Mean
[19] = molecular target: T8, Protein skinhead-1 (Caenorhabditis elegans, UniProt P34707); format: functional
T8 sequence (P34707 whole entry): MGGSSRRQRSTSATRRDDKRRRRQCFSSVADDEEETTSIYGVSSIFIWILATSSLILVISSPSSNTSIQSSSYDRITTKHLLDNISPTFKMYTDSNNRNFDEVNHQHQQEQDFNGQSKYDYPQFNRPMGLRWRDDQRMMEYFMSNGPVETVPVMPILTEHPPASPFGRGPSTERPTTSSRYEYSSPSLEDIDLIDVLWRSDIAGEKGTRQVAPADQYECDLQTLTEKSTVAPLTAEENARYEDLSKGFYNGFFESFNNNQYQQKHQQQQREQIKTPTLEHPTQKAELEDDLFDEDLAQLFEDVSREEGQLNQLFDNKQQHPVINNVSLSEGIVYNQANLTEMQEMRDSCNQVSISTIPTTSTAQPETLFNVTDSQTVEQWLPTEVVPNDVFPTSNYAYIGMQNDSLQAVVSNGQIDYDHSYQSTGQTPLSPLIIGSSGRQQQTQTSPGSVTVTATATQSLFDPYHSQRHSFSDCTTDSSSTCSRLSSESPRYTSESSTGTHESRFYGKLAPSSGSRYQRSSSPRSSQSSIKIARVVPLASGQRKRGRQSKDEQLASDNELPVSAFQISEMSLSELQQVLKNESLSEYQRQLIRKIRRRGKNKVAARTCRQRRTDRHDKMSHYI

[20] = molecular target: Matrix metalloproteinase-14 (Homo sapiens, UniProt P50281); experiment: Dose Response confirmation of uHTS hits for a small molecule inhibitors of MT1-MMP activation in a fluorescence assay set 1.; format: functional
[21] = molecular target: T9, Heat shock factor protein 1 (Mus musculus, UniProt P38532); experiment: inhibition of MG132-induced HSE-luciferase signal, confirmation, cell-based, NIH3T3, luminescence, dose retest (AID 2382); format: functional;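 further: NIH3T3 fibroblasts with HSF1-driven luciferase reporter stressed by proteasome inhibitor MG132; luminescence from HSF1-driven luciferase expression after 8 hours of MG132 stress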
T9 sequence (P38532 whole entry): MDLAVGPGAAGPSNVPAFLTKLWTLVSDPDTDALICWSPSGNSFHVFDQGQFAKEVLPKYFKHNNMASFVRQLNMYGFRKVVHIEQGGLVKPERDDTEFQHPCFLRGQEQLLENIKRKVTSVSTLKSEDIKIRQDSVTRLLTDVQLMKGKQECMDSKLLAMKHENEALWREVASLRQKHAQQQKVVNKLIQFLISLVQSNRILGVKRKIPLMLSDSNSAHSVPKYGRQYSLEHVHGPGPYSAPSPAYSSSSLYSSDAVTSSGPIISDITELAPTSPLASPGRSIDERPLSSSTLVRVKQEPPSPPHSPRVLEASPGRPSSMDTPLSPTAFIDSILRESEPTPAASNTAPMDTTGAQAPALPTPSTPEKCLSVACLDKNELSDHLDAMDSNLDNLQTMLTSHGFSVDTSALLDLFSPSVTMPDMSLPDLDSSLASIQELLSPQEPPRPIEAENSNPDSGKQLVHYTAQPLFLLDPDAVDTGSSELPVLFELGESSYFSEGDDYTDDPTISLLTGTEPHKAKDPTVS

## O=C(Nc1ccc2oc(-c3ccncc3)nc2c1)c1ccc2c(c1)OCO2
[1]
  IC50: 7.98 µM (active)
[2]
  IC50: > 66.6 µM (inactive)
[3]
  IC50: 7.12 µM (active)

## CC(=O)NC(CC(C)C)C(=O)NC(Cc1ccccc1)C(=O)CCl (stereo not drawn) (Ac-Leu-Phe-CH2Cl; configuration not given here)
[4]
  IC50: 3.63 µM (active)
[5]
  IC50: 1.04 µM (active)

## CCN(CC)C(=O)CSc1nnc(-c2ccccn2)n1-c1ccc(C)c(C)c1
[6]
  AC50: 92.4 µM (active)

## c1ccc(-n2nnnc2NCCc2c[nH]c3ccccc23)cc1
[7]
  AC50: 9.93 µM (active)

## CCc1c(C)c2ccc(OC3CCCCC3=O)cc2oc1=O (stereo not given)
[8]
  EC50: > 91.2 µM (inactive)
[9]
  EC50: > 91.2 µM (inactive)

## O=C(CSc1nc2ccccc2[nH]1)Nc1nc(-c2ccc(Br)cc2)cs1
[10]
  IC50: 90.6 µM (inactive)
[11]
  IC50: 85.4 µM (inactive)
[12]
  IC50: 55.6 µM (inactive)

## COC(=O)c1ccc(C(=O)Nc2ccc3c(c2)C(=O)NC3=O)cc1
[13]
  IC50: 6.87 µM (active)
[2]
  IC50: > 66.6 µM (inactive)
[3]
  IC50: 5.19 µM (active)

## CCOc1ccc(C(=O)N/N=C/c2ccc(-c3ccc(S(=O)(=O)Nc4ncccn4)cc3)o2)cc1
[14]
  IC50: 5.34 µM (active)
[15]
  IC50: 23.8 µM (active)

## Cc1noc(C)c1COC(=O)Cc1ccc(Cl)c(Cl)c1
[16]
  IC50: > 20 µM (inactive)
[17]
  EC50: > 53 µM (inactive)
[18]
  IC50: 33.8 µM (active)

## COCCCn1c(-c2ccc(OC)cc2)cc(C(=O)NC2CCCCCCC2)c1C
[16]
  IC50: 11.5 µM (active)
[17]
  EC50: > 53 µM (inactive)
[18]
  IC50: 3.95 µM (active)

## O=C(NNc1c2ccccc2nc2ccccc12)c1ccc(Cl)cc1
[19]
  IC50: > 100 µM (inactive)
[20]
  IC50: 46.5 µM (inactive)

## CCN1CCN(Cc2ccc(NC(=O)c3ccc(C)c(NC(=O)c4cccc5[nH]ccc45)c3)cc2C(F)(F)F)CC1
[21]
  EC50: 2.79 µM (active)
[4]
  IC50: 39.9 µM (inactive)
[5]
  IC50: 4.72 µM (active)

## O=C(CN1c2ccccc2Sc2ccccc21)NNC(=S)Nc1ccc(Cl)cc1Cl
[14]
  IC50: 13.7 µM (active)
[15]
  IC50: 52.2 µM (active)
